From article PMC6901909, “Synergy Pattern of Short Cationic Antimicrobial Peptides Against Multidrug-Resistant Pseudomonas aeruginosa” (Frontiers in Microbiology, 2019)
In brackets after ≈: the same amount, converted by molar mass. Like-named read-outs stand apart in the source and are kept apart here. Bridge positions count the residues as written; N and C are the ends. Square brackets hold non-standard residues; d marks the D form. Peptide text beside a SMILES is read from it. * marks the point of attachment. X1 = CC[C@H](C)CCCCC(=O)*; Dab = NCC[C@H](N)C(=O)O

Legend:
Experiment in all cases: microbe, parasite or virus in culture
Type in all cases: cell-based, Pseudomonas aeruginosa
[1] = tested on: MDR P. aeruginosa PA 919; conditions: conventional antibiotics, microdilution, Mueller-Hinton broth, 2–5 10^5 CFU/ml, 18 h at 37°C, read visually, at least three repeats (n = 3)
How it was run: (§1)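 Inoculum 2–5 10^5 CFU/ml in Mueller-Hinton broth, compounds twofold serially diluted, polypropylene microtiter plates. Strains are MDR isolates from clinical and municipal waste water.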

[2] = tested on: MDR P. aeruginosa PA 910
How it was run: as §1

[3] = tested on: MDR P. aeruginosa PA 927; conditions: conventional antibiotics, microdilution, Mueller-Hinton broth, 2–5 10^5 CFU/ml, 18 h at 37°C, read visually, at least three repeats (n = 3)
How it was run: as §1

[4] = tested on: MDR P. aeruginosa PA253; conditions: conventional antibiotics, microdilution, Mueller-Hinton broth, 2–5 10^5 CFU/ml, 18 h at 37°C, read visually, at least three repeats (n = 3)
How it was run: as §1

[5] = tested on: MDR P. aeruginosa PA 923; conditions: conventional antibiotics, microdilution, Mueller-Hinton broth, 2–5 10^5 CFU/ml, 18 h at 37°C, read visually, at least three repeats (n = 3)
How it was run: as §1

[6] = tested on: P. aeruginosa PA01-wt; conditions: conventional antibiotics, microdilution, Mueller-Hinton broth, 2–5 10^5 CFU/ml, 18 h at 37°C, read visually, at least three repeats (n = 3)
[7] = tested on: MDR P. aeruginosa PA 915; conditions: conventional antibiotics, microdilution, Mueller-Hinton broth, 2–5 10^5 CFU/ml, 18 h at 37°C, read visually, at least three repeats (n = 3)
How it was run: as §1

[8] = Pseudomonas aeruginosa, 18 h, antibiotic alone, as listed in the FIC table, read-out: MIC against PA910 in μM (antibiotics, head of Table 4)
[9] = Pseudomonas aeruginosa, conventional antibiotics, microdilution, Mueller-Hinton broth, 2–5 10^5 CFU/ml, 18 h at 37°C, read visually, at least three repeats (n = 3), read-out: MIC PA 910

Work on CNC(C)C1CCC(N)C(OC2C(N)CC(N)C(OC3OCC(C)(O)C(NC)C3O)C2O)O1 (stereo not shown) [Gentamycin] yielded an MIC ([1]; Pseudomonas aeruginosa) of 128 µM (≈ 61.1 µg/mL), an MIC [2, 8] of 128 µM and an MIC [2, 9] of 128 µM (≈ 61.1 µg/mL). The MIC ([3]; Pseudomonas aeruginosa) was 128 µM (≈ 61.1 µg/mL), the MIC ([4]; Pseudomonas aeruginosa) was > 256 µM and the MIC ([5]; Pseudomonas aeruginosa) was 128 µM (≈ 61.1 µg/mL). For the same compound, the MIC ([6]; Pseudomonas aeruginosa, PA01WT) was 1 µM (≈ 0.478 µg/mL) and the MIC ([7]; Pseudomonas aeruginosa) was 128 to 256 µM (≈ 61.1 to 122 µg/mL).

For C[C@@H](O)[C@H]1C(=O)N2C(C(=O)O)=C(SCCN=CN)C[C@H]12 [Imipenem], the MIC ([1]; Pseudomonas aeruginosa) was 16 µM (≈ 4.79 µg/mL), the MIC [2, 8] was > 128 µM and the MIC [2, 9] was > 128 µM. The MIC ([3]; Pseudomonas aeruginosa) was > 128 µM, the MIC ([4]; Pseudomonas aeruginosa) was > 128 µM and the MIC ([5]; Pseudomonas aeruginosa) was > 128 µM. For the same compound, the MIC ([6]; Pseudomonas aeruginosa, PA01WT) was 2 µM (≈ 0.599 µg/mL) and the MIC ([7]; Pseudomonas aeruginosa) was > 128 µM.

For C[C@@H](O)[C@H]1C(=O)N2C(C(=O)O)=C(S[C@@H]3CN[C@H](C(=O)N(C)C)C3)[C@H](C)[C@H]12 [Meropenem], the MIC ([1]; Pseudomonas aeruginosa) was > 128 µM, the MIC [2, 8] was > 128 µM and the MIC [2, 9] was > 128 µM. For the same compound, the MIC ([3]; Pseudomonas aeruginosa) was > 128 µM, the MIC ([4]; Pseudomonas aeruginosa) was > 128 µM and the MIC ([5]; Pseudomonas aeruginosa) was > 128 µM. The MIC ([6]; Pseudomonas aeruginosa, PA01WT) was 2 to 4 µM (≈ 0.767 to 1.53 µg/mL) and the MIC ([7]; Pseudomonas aeruginosa) was > 128 µM.

For CCN1CCN(C(=O)N[C@@H](C(=O)N[C@@H]2C(=O)N3[C@@H]2SC(C)(C)[C@@H]3C(=O)O)c2ccccc2)C(=O)C1=O [Piperacillin], the MIC ([1]; Pseudomonas aeruginosa) was 64 µM (≈ 33.1 µg/mL), the MIC [2, 8] was 64 to 128 µM and the MIC [2, 9] was 64 to 128 µM (≈ 33.1 to 66.2 µg/mL). For the same compound, the MIC ([3]; Pseudomonas aeruginosa) was 256 µM (≈ 132 µg/mL), the MIC ([4]; Pseudomonas aeruginosa) was > 256 µM and the MIC ([5]; Pseudomonas aeruginosa) was 128 µM (≈ 66.2 µg/mL). For the same compound, the MIC ([6]; Pseudomonas aeruginosa, PA01WT) was 4 µM (≈ 2.07 µg/mL) and the MIC ([7]; Pseudomonas aeruginosa) was > 256 µM.

CC[C@H](C)CCCCC(=O)N[C@@H](CCN)C(=O)N[C@H](C(=O)N[C@@H](CCN)C(=O)N[C@H]1CCNC(=O)[C@H]([C@@H](C)O)NC(=O)[C@H](CCN)NC(=O)[C@H](CCN)NC(=O)[C@H](CC(C)C)NC(=O)[C@@H](Cc2ccccc2)NC(=O)[C@H](CCN)NC1=O)[C@@H](C)O [Polymyxin B] (X1-[Dab]T[Dab][Dab][Dab][dF]L[Dab][Dab]T; lactam 4-C (inferred); N-terminus assumed) showed an MIC [1] of 0.125 µM (≈ 0.15 µg/mL), an MIC ([2]; antibiotic alone, as listed in the FIC table, read-out: MIC against PA910 in μM (antibiotics, head of Table 4)) of 0.13 µM and an MIC ([2]; conventional antibiotics, microdilution, Mueller-Hinton broth, 2–5 10^5 CFU/ml, 18 h at 37°C, read visually, at least three repeats (n = 3), read-out: MIC PA 910) of 0.125 µM (≈ 0.15 µg/mL). The MIC [3] was 0.25 µM (≈ 0.301 µg/mL), the MIC [4] was 0.125 µM (≈ 0.15 µg/mL) and the MIC [5] was 0.25 µM (≈ 0.301 µg/mL). For the same compound, the MIC [6] was 0.125 µM (≈ 0.15 µg/mL) and the MIC [7] was 0.25 µM (≈ 0.301 µg/mL).

CN(C)[C@@H]1C(O)=C(C(N)=O)C(=O)[C@@]2(O)C(O)=C3C(=O)c4c(O)cccc4[C@@](C)(O)[C@H]3C[C@@H]12 [Tetracyclin] gave an MIC ([1]; Pseudomonas aeruginosa) of 32 µM (≈ 14.2 µg/mL), an MIC [2, 8] of 64 µM and an MIC [2, 9] of 64 µM (≈ 28.4 µg/mL). The MIC ([3]; Pseudomonas aeruginosa) was 16 µM (≈ 7.11 µg/mL), the MIC ([4]; Pseudomonas aeruginosa) was 32 µM (≈ 14.2 µg/mL) and the MIC ([5]; Pseudomonas aeruginosa) was > 512 µM. For the same compound, the MIC ([6]; Pseudomonas aeruginosa, PA01WT) was 8 µM (≈ 3.56 µg/mL) and the MIC ([7]; Pseudomonas aeruginosa) was 16 µM (≈ 7.11 µg/mL).

Compound NC[C@H]1O[C@H](O[C@H]2[C@H](O)[C@@H](O[C@H]3O[C@H](CO)[C@@H](O)[C@H](N)[C@H]3O)[C@H](N)C[C@@H]2N)[C@H](N)C[C@@H]1O [Tobramycin] has an MIC ([1]; Pseudomonas aeruginosa) of 64 µM (≈ 29.9 µg/mL), an MIC [2, 8] of 32 µM and an MIC [2, 9] of 32 µM (≈ 15 µg/mL). The MIC ([3]; Pseudomonas aeruginosa) was 32 µM (≈ 15 µg/mL), the MIC ([4]; Pseudomonas aeruginosa) was 64 µM (≈ 29.9 µg/mL) and the MIC ([5]; Pseudomonas aeruginosa) was 32 µM (≈ 15 µg/mL). The MIC ([6]; Pseudomonas aeruginosa, PA01WT) was 0.25 to 0.5 µM (≈ 0.117 to 0.234 µg/mL) and the MIC ([7]; Pseudomonas aeruginosa) was 64 µM (≈ 29.9 µg/mL).

In the case of Kanamycin, the MIC [1] is reported as 128 µM, the “MIC against PA910 in μM (antibiotics, head of Table 4)” value ([2]; antibiotic alone, as listed in the FIC table) is reported as 128 to 256 µM and the “MIC PA 910” value ([2]; conventional antibiotics, microdilution, Mueller-Hinton broth, 2–5 10^5 CFU/ml, 18 h at 37°C, read visually, at least three repeats (n = 3)) is reported as 128 to 256 µM. For the same compound, the MIC [3] was 128 µM, the MIC [4] was >512 µM and the MIC [5] was 256 µM. The MIC [6] was 64 µM and the “MIC PA 915” value [7] was 256 to 512 µM.
